Article PMC12042115 (mLife, 2025)
Converted amounts (≈) assume the structure as drawn. Like-named read-outs stand apart in the source and are kept apart here.

Legend:
GH189 (clpP1‐KD) = experiment: microbe, parasite or virus in culture; format: cell-based, M. bovis BCG; settings: for MIC: Mycobacterium tuberculosis variant bovis BCG
Mtb ClpP1P2 = Mtb ClpP1P2 (Mycobacterium tuberculosis, UniProt P9WPC3+P9WPC5); experiment: Mtb ClpP1P2 peptidase assay (library screening and IC50 determination); format: biochemical
Chain of Mtb ClpP1P2 (P9WPC3 16-214, one chain of several): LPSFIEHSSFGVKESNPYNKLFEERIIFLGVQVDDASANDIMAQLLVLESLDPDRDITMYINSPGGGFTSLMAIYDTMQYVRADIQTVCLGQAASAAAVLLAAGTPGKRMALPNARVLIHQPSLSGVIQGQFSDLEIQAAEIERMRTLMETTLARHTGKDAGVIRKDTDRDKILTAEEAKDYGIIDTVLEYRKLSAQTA

M. tuberculosis H37Rv = experiment: MIC against Mtb H37Rv; format: cell-based, Mycobacterium tuberculosis; settings: for MIC90: Mycobacterium tuberculosis, H37RV
[1] = read-out: MIC (µg/ml) when clpP1‐KD induced
[2] = read-out: MIC (µg/ml) when no clpP1‐KD
[3] = Figure S4, highest concentration 100 µM, read-out: concentration inhibiting 50% of the peptidase activity
[4] = Figure 2B, neat/synthesized compounds, read-out: ClpP1P2 IC50

Molecule | MIC (GH189 (clpP1‐KD); [1]) [µg/mL] | MIC (GH189 (clpP1‐KD); [2]) [µg/mL] | also measured
CC[C@H]1OC(=O)[C@H](C)[C@@H](O[C@H]2C[C@@](C)(OC)[C@@H](O)[C@H](C)O2)[C@H](C)[C@@H](O[C@@H]2O[C@H](C)C[C@H](N(C)C)[C@H]2O)[C@](C)(O)C[C@@H](C)CN(C)[C@H](C)[C@@H](O)[C@]1(C)O [Azithromycin] | 0.46 (≈ 0.614 µM) | 0.5 (≈ 0.668 µM) | –
COc1nc2ccc(Br)cc2cc1[C@@H](c1ccccc1)[C@@](O)(CCN(C)C)c1cccc2ccccc12 [Bedaquiline] | 0.06 (≈ 0.108 µM) | 0.06 (≈ 0.108 µM) | –
CC[C@H]1OC(=O)[C@H](C)[C@@H](O[C@H]2C[C@@](C)(OC)[C@@H](O)[C@H](C)O2)[C@H](C)[C@@H](O[C@@H]2O[C@H](C)C[C@H](N(C)C)[C@H]2O)[C@](C)(OC)C[C@@H](C)C(=O)[C@H](C)[C@@H](O)[C@]1(C)O [Clarithromycin] | 0.1 (≈ 0.134 µM) | 0.11 (≈ 0.147 µM) | –
N[C@@H]1CON=C1O [D‐Cycloserine] | 9.3 (≈ 91.1 µM) | 11 (≈ 108 µM) | –
CC[C@@H](CO)NCCN[C@@H](CC)CO [Ethambutol] | 0.28 (≈ 1.37 µM) | 0.62 (≈ 3.03 µM) | downshift in the MIC against GH189 on clpP1‐KD (GH189 (clpP1‐KD)): > 2 fold
CCc1cc(C(N)=S)ccn1 [Ethionamide] | 6.4 (≈ 38.5 µM) | 46 (≈ 277 µM) | IC50 (Mtb ClpP1P2; [3]): > 100 µM; downshift in the MIC against GH189 on clpP1‐KD (GH189 (clpP1‐KD)): > 2 fold
O=C(Oc1ccccc1)c1ccc(N2CCOCC2)c([N+](=O)[O-])c1 [GDI‐5756] | – | – | inhibition of ClpP1P2 peptidase at 100 µM (Mtb ClpP1P2): Neither analog could inhibit; IC50 (Mtb ClpP1P2; [4]): > 100 µM; inhibition of Mtb whole cell at 100 µM (M. tuberculosis H37Rv): Neither analog could inhibit; MIC90 (M. tuberculosis H37Rv): > 100 µM; MIC shift against GH189 on ATc induction (GH189 (clpP1‐KD)): marginally shifted down
O=C(Nc1ccc(Cl)cc1)c1ccc(N2CCOCC2)c([N+](=O)[O-])c1 [GDI‐5757] | – | – | inhibition of ClpP1P2 peptidase at 100 µM (Mtb ClpP1P2): Neither analog could inhibit; IC50 (Mtb ClpP1P2; [4]): > 100 µM; inhibition of Mtb whole cell at 100 µM (M. tuberculosis H37Rv): Neither analog could inhibit; MIC90 (M. tuberculosis H37Rv): > 100 µM; MIC shift against GH189 on ATc induction (GH189 (clpP1‐KD)): remained inactive
NNC(=O)c1ccncc1 [Isoniazid] | 0.057 (≈ 0.416 µM) | 0.066 (≈ 0.481 µM) | IC50 (Mtb ClpP1P2; [3]): > 100 µM
CC(=O)NC[C@H]1CN(c2ccc(N3CCOCC3)c(F)c2)C(=O)O1 [Linezolid] | 0.97 (≈ 2.88 µM) | 1 (≈ 2.96 µM) | –
C[C@@H](O)[C@H]1C(=O)N2C(C(=O)O)=C(S[C@@H]3CN[C@H](C(=O)N(C)C)C3)[C@H](C)[C@H]12 [Meropenem] | 1.6 (≈ 4.17 µM) | 5.3 (≈ 13.8 µM) | IC50 (Mtb ClpP1P2; [3]): > 100 µM; downshift in the MIC against GH189 on clpP1‐KD (GH189 (clpP1‐KD)): > 2 fold
O=[N+]([O-])c1cn2c(n1)OC[C@@H](OCc1ccc(OC(F)(F)F)cc1)C2 [Pretomanid] | 0.06 (≈ 0.167 µM) | 0.12 (≈ 0.334 µM) | –
NC(=O)c1cnccn1 [Pyrazinamide, reference compound] | – | – | IC50 (Mtb ClpP1P2; [3]): > 100 µM
CO[C@H]1/C=C/O[C@@]2(C)Oc3c(C)c(O)c4c(O)c(c(/C=N/N5CCN(C)CC5)c(O)c4c3C2=O)NC(=O)/C(C)=C\C=C\[C@H](C)[C@H](O)[C@@H](C)[C@@H](O)[C@@H](C)[C@H](OC(C)=O)[C@@H]1C [Rifampicin] | 0.01 (≈ 0.0122 µM) | 0.01 (≈ 0.0122 µM) | –
CO[C@H]1/C=C/O[C@@]2(C)Oc3c(C)c(O)c4c(O)c(cc(O)c4c3C2=O)NC(=O)/C(C)=C\C=C\[C@H](C)[C@H](O)[C@@H](C)[C@@H](O)[C@@H](C)[C@H](OC(C)=O)[C@@H]1C [Rifamycin, reference compound] | – | – | IC50 (Mtb ClpP1P2; [3]): > 100 µM
O=C(Oc1ccc(Cl)cc1)c1ccc(COC(=O)c2cnccn2)cc1 [SAM002946897] | – | – | IC50 (Mtb ClpP1P2; library stocks, concentration–response, read-out: IC50): 3.23 µM
[H]/N=C(/N)N[C@H]1[C@H](O)[C@@H](O)[C@H](O[C@@H]2O[C@@H](C)[C@](O)(C=O)[C@H]2O[C@@H]2O[C@@H](CO)[C@H](O)[C@@H](O)[C@@H]2NC)[C@@H](N/C(N)=N\[H])[C@@H]1O [Streptomycin] | 0.23 (≈ 0.395 µM) | 0.24 (≈ 0.413 µM) | –
Capreomycin | – | – | MIC (µg/ml) when clpP1‐KD induced (GH189 (clpP1‐KD)): 0.14 µg/mL; MIC (µg/ml) when no clpP1‐KD (GH189 (clpP1‐KD)): 0.25 µg/mL
